According to US10307413B2, “Tetrahydro- and dihydro-isoquinoline PRMT5 inhibitors and uses thereof” (Epizyme, Inc., priority 2013, dated 2019):

Experiments:
[1] = system: symmetric di-methyl arginine in Z-138 cells; assay: Z-138 Methylation Assay (In Cell Western for symmetric di-methyl arginine and DNA content); assay type: cell-based; conditions: Homo sapiens, read-out: ICW EC50
Text: [formula] [formula] Where top and bottom are the normally allowed to float, but may be fixed at 100 or 0 respectively in a 3-parameter fit. The Hill Coefficient normally allowed to float but may also be fixed at 1 in a 3-parameter fit. Y is the % inhibition and X is the compound concentration.
RPMI/Glutamax medium, penicillin-streptomycin, heat inactivated fetal bovine serum, and D-PBS were purchased from Life Technologies, Grand Island, N.Y., USA. Odyssey blocking buffer, 800CW goat anti-rabbit IgG (H+L) antibody, and Licor Odyssey infrared scanner were purchased from Licor Biosciences, Lincoln, Nebr., USA. Symmetric di-methyl arginine antibody was purchased from EMD Millipore, Billerica, Mass., USA. 16% Paraformaldehyde was purchased from Electron Microscopy Sciences, Hatfield, Pa., USA.
Cell Treatment, in Cell Western (ICW) for Detection of Symmetric Di-Methyl Arginine and DNA Content.
Z-138 cells were seeded in assay medium at a concentration of 50,000 cells per mL to a 384-well cell culture plate with 50 μL per well. Compound (100 nL) from 384 well source plates was added directly to 384 well cell plate. Plates were incubated at 37° C., 5% CO2 for 96 hours. […] Plates were incubated at room temperature for 30 minutes then incubated at 37° C., 5% CO2 for 5 hours. After the incubation, 40 μL per well of 8% paraformaldehyde in PBS (16% paraformaldahyde was diluted to 8% in PBS) was added to each plate and incubated for 30 minutes. […] Next 30 μL per well of Odyssey blocking buffer were added to each plate and incubated 1 hour at room temperature. Blocking buffer was removed and 20 μL per well of primary antibody was added (symmetric di-methyl arginine diluted 1:100 in Odyssey buffer with 0.1% Tween 20 (v/v)) and plates were incubated overnight (16 hours) at 4° C. Plates were washed 5 times with 100 μL per well of wash buffer. Next 20 μL per well of secondary antibody was added (1:200 800CW goat anti-rabbit IgG (H+L) antibody, 1:1000 DRAQ5 (Biostatus limited) in Odyssey buffer with 0.1% Tween 20 (v/v)) and incubated for 1 hour at room temperature. The plates were washed 5 times with 100 μL per well wash buffer then 1 time with 100 μL per well of water. Plates were allowed to dry at room temperature then imaged on the Licor Odyssey machine which measures integrated intensity at 700 nm and 800 nm wavelengths. Both 700 and 800 channels were scanned.
First, the ratio for each well was determined by:
Each plate included fourteen control wells of DMSO only treatment (minimum inhibition) as well as fourteen control wells for maximum inhibition treated with 3 μM of a reference compound (Background wells). The average of the ratio values for each control type was calculated and used to determine the percent inhibition for each test well in the plate. Reference compound was serially diluted three-fold in DMSO for a total of nine test concentrations, beginning at 3 μM. Percent inhibition was determined and IC50 curves were generated using triplicate wells per concentration of compound. Percent Inhibition=100−

Z-138 cell line = assay: Z-138 Proliferation Assay (Cell Titer Glo, 5 days); assay type: cell-based; conditions: Homo sapiens, 120 h; Z-138 cells, 5 days; read-out: Proliferation EC50
Text: RPMI/Glutamax medium, penicillin-streptomycin, heat inactivated fetal bovine serum were purchased from Life Technologies, Grand Island, N.Y., USA. V-bottom polypropylene 384-well plates were purchased from Greiner Bio-One, Monroe, N.C., USA. Cell culture 384-well white opaque plates were purchased from Perkin Elmer, Waltham, Mass., USA. Cell-Titer Glo® was purchased from Promega Corporation, Madison, Wis., USA. SpectraMax M5 plate reader was purchased from Molecular Devices LLC, Sunnyvale, Calif., USA.
A compound source plate was prepared by performing triplicate nine-point 3-fold serial dilutions in DMSO, beginning at 10 mM (final top concentration of compound in the assay was 20 μM and the DMSO was 0.2%). A 100 nL aliquot from the compound stock plate was added to its respective well in the cell plate. […] After addition of compounds, assay plates were incubated for 5 days at 37° C., 5% CO2, relative humidity >90%.
Cell viability was measured by quantitation of ATP present in the cell cultures, adding […] of Cell Titer Glo® reagent to the cell plates. Luminescence was read in the SpectraMax M5 microplate reader. The concentration of compound inhibiting cell viability by 50% was determined using a 4-parametric fit of the normalized dose response curves.

SMILES	EC50 [1]	EC50 (Z-138 cell line)
Cc1ccc(NC2CCOCC2)cc1C(=O)NCC(O)CN1CCc2ccccc2C1 (stereo not shown) [Compound 95]	101 to 1000 nM	1000 to 10000 nM
Cc1ccc(NC2CCOC2)cc1C(=O)NCC(O)CN1CCc2ccccc2C1 (stereo not shown) [Compound 96]	< 100 nM	1000 to 10000 nM
Cc1ccc(NC2COC2)cc1C(=O)NCC(O)CN1CCc2ccccc2C1 (stereo not shown) [Compound 97]	< 100 nM	1000 to 10000 nM
O=C(NCC(O)CN1CCc2ccccc2C1)c1cccc(NC2CCOCC2O)c1 (stereo not shown) [Compound 98]	101 to 1000 nM	1000 to 10000 nM
O=C(NCC(O)CN1CCc2ccccc2C1)c1cccc(C2CCOCC2)c1 (stereo not shown) [Compound 99]	< 100 nM	1000 to 10000 nM
CC(=O)N1CCN(Cc2cccc(C(=O)NCC(O)CN3CCc4ccccc4C3)c2)CC1 (stereo not shown) [Compound 100]	< 100 nM	1000 to 10000 nM
CC(C)N1CCC(Nc2cccc(C(=O)NCC(O)CN3CCc4ccccc4C3)c2)C1 (stereo not shown) [Compound 101]	< 100 nM	10000 to 50000 nM
O=C(NCC(O)CN1CCc2ccccc2C1)c1cccc(NC2CCN(CC(F)(F)F)C2)c1 (stereo not shown) [Compound 102]	< 100 nM	1000 to 10000 nM
CC(C)N1CCC(Nc2cccc(C(=O)NCC(O)CN3CCc4ccccc4C3)c2)CC1 (stereo not shown) [Compound 103]	< 100 nM	10000 to 50000 nM
O=C(NCC(O)CN1CCc2ccccc2C1)c1ccc(OC2CCNCC2)cc1 (stereo not shown) [Compound 104]	< 100 nM	1000 to 10000 nM
CN1CCC(Oc2ccc(C(=O)NCC(O)CN3CCc4ccccc4C3)cc2)CC1 (stereo not shown) [Compound 105]	< 100 nM	1000 to 10000 nM
CC(C)N1CCC(Oc2ccc(C(=O)NCC(O)CN3CCc4ccccc4C3)cc2)CC1 (stereo not shown) [Compound 106]	< 100 nM	101 to 1000 nM
CC(=O)N1CCC(Oc2ccc(C(=O)NCC(O)CN3CCc4ccccc4C3)cc2)CC1 (stereo not shown) [Compound 107]	< 100 nM	101 to 1000 nM
CS(=O)(=O)N1CCC(Oc2ccc(C(=O)NCC(O)CN3CCc4ccccc4C3)cc2)CC1 (stereo not shown) [Compound 108]	< 100 nM	101 to 1000 nM
O=C(NCC(O)CN1CCc2ccccc2C1)c1ccc(OC2CCN(CC(F)(F)F)CC2)cc1 (stereo not shown) [Compound 109]	< 100 nM	101 to 1000 nM
O=C(NCC(O)CN1CCc2ccccc2C1)c1ccc(-n2cncn2)cc1 (stereo not shown) [Compound 110]	< 100 nM	1000 to 10000 nM
CN(C[C@H](O)CN1CCc2ccccc2C1)C(=O)c1cccc(NC2CCOCC2)c1 [Compound 111]	101 to 1000 nM	1000 to 10000 nM
O=C(NCC(O)CN1CCc2ccccc2C1)c1cn[nH]c1-c1ccccc1 (stereo not shown) [Compound 112]	1000 to 10000 nM	> 20000 nM
O=C(NCC(O)CN1CCc2ccccc2C1)c1cccc(CN2CCN(CCO)CC2)c1 (stereo not shown) [Compound 113]	101 to 1000 nM	10000 to 50000 nM
COCCN1CCN(Cc2cccc(C(=O)NCC(O)CN3CCc4ccccc4C3)c2)CC1 (stereo not shown) [Compound 114]	101 to 1000 nM	10000 to 50000 nM
CN1CCN(Cc2cccc(C(=O)NCC(O)CN3CCc4ccccc4C3)c2)C(CO)C1 (stereo not shown) [Compound 115]	101 to 1000 nM	> 20000 nM
NC(=O)CNCc1cccc(C(=O)NCC(O)CN2CCc3ccccc3C2)c1 (stereo not shown) [Compound 116]	101 to 1000 nM	> 20000 nM
CNC(=O)CNCc1cccc(C(=O)NCC(O)CN2CCc3ccccc3C2)c1 (stereo not shown) [Compound 117]	101 to 1000 nM	> 20000 nM
CN(C)C(=O)CNCc1cccc(C(=O)NCC(O)CN2CCc3ccccc3C2)c1 (stereo not shown) [Compound 118]	101 to 1000 nM	> 20000 nM
O=C(NCC(O)CN1CCc2ccccc2C1)c1cccc(OC2CCNC2)c1 (stereo not shown) [Compound 119]	101 to 1000 nM	1000 to 10000 nM

SMILES	EC50 [1]	EC50 (Z-138 cell line)
CC(=O)N1CCC(Nc2cccc(C(=O)NCC(O)CN3CCc4ccccc4C3)c2)C1 (stereo not shown) [Compound 121]	< 100 nM	101 to 1000 nM
CS(=O)(=O)N1CCC(Nc2cccc(C(=O)NCC(O)CN3CCc4ccccc4C3)c2)C1 (stereo not shown) [Compound 122]	< 100 nM	101 to 1000 nM
CN1CCC(Nc2cccc(C(=O)NCC(O)CN3CCc4ccccc4C3)c2)CC1 (stereo not shown) [Compound 123]	101 to 1000 nM	1000 to 10000 nM
CC(=O)N1CCC(Nc2cccc(C(=O)NCC(O)CN3CCc4ccccc4C3)c2)CC1 (stereo not shown) [Compound 124]	< 100 nM	< 100 nM
CS(=O)(=O)N1CCC(Nc2cccc(C(=O)NCC(O)CN3CCc4ccccc4C3)c2)CC1 (stereo not shown) [Compound 125]	< 100 nM	101 to 1000 nM
O=C(NCC(O)CN1CCc2ccccc2C1)c1cccc(NC2CCN(CC(F)(F)F)CC2)c1 (stereo not shown) [Compound 126]	< 100 nM	1000 to 10000 nM
CC(=O)N1CCC(Nc2ccc(C(=O)NCC(O)CN3CCc4ccccc4C3)cc2)CC1 (stereo not shown) [Compound 127]	< 100 nM	1000 to 10000 nM
O=C(NCC(O)CN1CCc2ccccc2C1)c1ccc(NC2CCN(CC(F)(F)F)CC2)cc1 (stereo not shown) [Compound 128]	< 100 nM	1000 to 10000 nM
O=C(NCC(O)CN1CCc2ccccc2C1)c1ccc(NC2CCOC2)cc1 (stereo not shown) [Compound 129]	< 100 nM	1000 to 10000 nM
O=C(NCC(O)CN1CCc2ccccc2C1)c1cccc(-n2cncn2)c1 (stereo not shown) [Compound 130]	101 to 1000 nM	10000 to 50000 nM
CN1CCC(N(C)c2cccc(C(=O)NCC(O)CN3CCc4ccccc4C3)c2)CC1 (stereo not shown) [Compound 131]	101 to 1000 nM	1000 to 10000 nM
CN1CCC(N(C)c2cccc(C(=O)NCC(O)CN3CCc4ccccc4C3)c2)C1 (stereo not shown) [Compound 132]	101 to 1000 nM	1000 to 10000 nM
O=C(NCC(O)CN1CCc2ccccc2C1)c1cccc(OCCN2CCOCC2)c1 (stereo not shown) [Compound 133]	< 100 nM	1000 to 10000 nM
CC(C)N1CCC(Oc2cccc(C(=O)NCC(O)CN3CCc4ccccc4C3)c2)C1 (stereo not shown) [Compound 135]	< 100 nM	10000 to 50000 nM
CC(=O)N1CCC(Oc2cccc(C(=O)NCC(O)CN3CCc4ccccc4C3)c2)C1 (stereo not shown) [Compound 136]	< 100 nM	1000 to 10000 nM
O=C(NCC(O)CN1CCc2ccccc2C1)c1cccc(OC2CCN(CC(F)(F)F)C2)c1 (stereo not shown) [Compound 137]	< 100 nM	1000 to 10000 nM
O=C(NCC(O)CN1CCc2ccccc2C1)c1ccc(NC2CCNCC2)cc1 (stereo not shown) [Compound 138]	101 to 1000 nM	10000 to 50000 nM
CN1CCC(Nc2ccc(C(=O)NCC(O)CN3CCc4ccccc4C3)cc2)CC1 (stereo not shown) [Compound 139]	< 100 nM	1000 to 10000 nM
CC(C)N1CCC(Nc2ccc(C(=O)NCC(O)CN3CCc4ccccc4C3)cc2)CC1 (stereo not shown) [Compound 140]	< 100 nM	1000 to 10000 nM
CS(=O)(=O)N1CCC(Nc2ccc(C(=O)NCC(O)CN3CCc4ccccc4C3)cc2)CC1 (stereo not shown) [Compound 141]	< 100 nM	1000 to 10000 nM
O=C(NCC(O)CN1CCc2ccccc2C1)c1ccc(CN2CCNCC2)cc1 (stereo not shown) [Compound 143]	< 100 nM	1000 to 10000 nM
CN(c1ccc(C(=O)NCC(O)CN2CCc3ccccc3C2)cc1)C1CCOC1 (stereo not shown) [Compound 144]	< 100 nM	1000 to 10000 nM
O=C(NCC(O)CN1CCc2ccccc2C1)c1ccc(CN2CCOCC2)cc1 (stereo not shown) [Compound 145]	< 100 nM	1000 to 10000 nM
COCCCOc1ccc(C(=O)NCC(O)CN2CCc3ccccc3C2)cc1 (stereo not shown) [Compound 146]	< 100 nM	1000 to 10000 nM
NCCN1CCN(Cc2cccc(C(=O)NCC(O)CN3CCc4ccccc4C3)c2)CC1 (stereo not shown) [Compound 147]	101 to 1000 nM	10000 to 50000 nM
